These compounds were tested on HCV replicons (HCV type 1b NS3-NS5B) in Huh-Luc cells (assay: HCV replicon assay (Huh-7 luc/neo, luciferase reporter)). Settings: Hepatitis C virus, Huh-7, 72 h, incubation of three days, luciferase activity.
Format: cell-based
Description: The pyrido[2,3-d]pyrimidine compounds of the present invention were examined for activity in the inhibition of HCV RNA replication in a cellular assay. […] The cellular assay was based on a bicistronic expression construct, as described by Lohmann et al. (1999) Science vol. 285 pp. 110-113 with modifications described by Krieger et al. (2001) Journal of Virology 75: 4614-4624, in a multi-target screening strategy. In essence, the method was as follows.
The assay utilized the stably transfected cell line Huh-7 luc/neo (hereafter referred to as Huh-Luc). […]
The replicon cells were plated in 384-well plates in the presence of the test and control compounds which were added in various concentrations. Following an incubation of three days, HCV replication was measured by assaying luciferase activity (using standard luciferase assay substrates and reagents and a Perkin Elmer ViewLux™, ultraHTS microplate imager). […] The inhibitory activity of the compound on luciferase activity was monitored on the Huh-Luc cells, enabling a dose-response curve for each test compound. […]
The replicon cells are plated in 384 well plates in the presence of the test and control compounds which are added in various concentrations. […] The inhibitory activity of the compound on luciferase activity is monitored on the Huh-Luc cells, enabling a dose-response curve for each test compound.

**Q.** `NC(=O)c1cnccc1Nc1nc(-c2cc(Cl)ccc2F)nc2ncccc12` [Compound 1] was tested. Which EC50 did it give?
**A.** 0.76 µM

**Q.** How did the EC50 turn out when `CNC(=O)c1cnccc1Nc1nc(-c2cc(Cl)ccc2F)nc2ncccc12` [Compound 2] was run?
**A.** 11.9 µM

The compounds below were run against T1, TGFβ R1 (Homo sapiens, UniProt P36897) (assay: TGFβ R1 autophosphorylation protocol). Settings: 10 uM ATP, 170 nM TGFβ R1, 20 minutes at room temperature; read-out: IC50 for Kinase Inhibition.
T1 sequence (P36897 34-503): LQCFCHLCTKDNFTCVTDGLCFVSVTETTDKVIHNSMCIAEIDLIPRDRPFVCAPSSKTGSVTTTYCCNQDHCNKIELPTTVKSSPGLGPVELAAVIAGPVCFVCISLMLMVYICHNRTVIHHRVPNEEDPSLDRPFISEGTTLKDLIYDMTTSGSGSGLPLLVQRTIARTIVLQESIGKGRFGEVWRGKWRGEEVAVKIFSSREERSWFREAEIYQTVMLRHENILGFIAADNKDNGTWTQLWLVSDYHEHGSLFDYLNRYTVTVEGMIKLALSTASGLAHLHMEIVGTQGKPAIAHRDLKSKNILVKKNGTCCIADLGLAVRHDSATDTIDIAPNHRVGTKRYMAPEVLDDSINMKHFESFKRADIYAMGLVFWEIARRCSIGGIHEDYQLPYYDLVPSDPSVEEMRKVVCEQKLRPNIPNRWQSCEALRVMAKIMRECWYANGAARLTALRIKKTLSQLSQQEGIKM
Format: biochemical
Method: The compounds of the invention were tested for their ability to inhibit TGFβ by a TGFβ R^1 autophosphorylation protocol. This was conducted as follows: Compound dilutions and reagents were prepared fresh daily. Compounds were diluted from DMSO stock solutions to 2 times the desired assay concentration, keeping final DMSO concentration in the assay less than or equal to 1%. TGFβ R1 was diluted to 4 times the desired assay concentration in buffer+DTT. ATP was diluted into 4× reaction buffer, and gamma-^33P-ATP was added at 60 uCi/mL.
The assay was performed by adding 10 ul of the enzyme to 20 ul of the compound solution. The reaction was initiated by the addition of 10 ul of ATP mix. Final assay conditions included 10 uM ATP, 170 nM TGFβ R1, and […] in 20 mM MOPS, pH7. The reactions were incubated at room temperature for 20 minutes. The reactions were stopped by transferring 23 ul of reaction mixture onto a phosphocellulose 96-well filter plate, which had been pre-wetted with 15 ul of 0.25M H3PO4 per well. After 5 minutes, the wells were washed 4× with 75 mM H3PO4 and once with 95% ethanol. The plate was dried, scintillation cocktail was added to each well, and the wells were counted in a Packard TopCount microplate scintillation counter.

**Q.** How did the IC50 turn out when `CNC(=O)c1cnccc1Nc1nc(-c2cc(Cl)ccc2F)nc2nc(NCCOC)ccc12` [Compound 7] was run?
**A.** 980 nM

**Q.** With `NC(=O)c1cnccc1Nc1nc(-c2cc(Cl)ccc2F)nc2ncccc12` [Compound 1] as the compound, how does the IC50 read?
**A.** 20 nM

**Q.** How did the IC50 turn out when `CNC(=O)c1cnccc1Nc1nc(-c2cc(Cl)ccc2F)nc2nc(N)ccc12` [Compound 4] was run?
**A.** 30 nM

**Q.** With `O=C(O)c1cnccc1Nc1nc(-c2cc(Cl)ccc2F)nc2ncccc12` [Compound 12] as the compound, how does the IC50 read?
**A.** 230 nM

**Q.** With `CC(O)CNC(=O)c1cnccc1Nc1nc(-c2cc(Cl)ccc2F)nc2nc(NCCN(C)C)ccc12` (stereo not shown) [Compound 6] as the compound, how does the IC50 read?
**A.** 12200 nM

**Q.** `C[C@H](O)CNC(=O)c1cnccc1Nc1nc(-c2cc(Cl)ccc2F)nc2nc(N)ccc12` [Compound 10] was tested. Which IC50 did it give?
**A.** 5010 nM

**Q.** Which IC50 does the source give for `Nc1ccc2c(Nc3ccncc3C(=O)NC3CC3)nc(-c3cc(Cl)ccc3F)nc2n1` [Compound 9] here?
**A.** 2700 nM

**Q.** Which IC50 does the source give for `COc1ccc(CN(Cc2ccc(OC)cc2)c2ccc3c(Nc4ccncc4C(=O)O)nc(-c4cc(Cl)ccc4F)nc3n2)cc1` [Compound 15] here?
**A.** 569 nM

**Q.** With `CNC(=O)c1cnccc1Nc1nc(-c2cc(Cl)ccc2NC)nc2ncccc12` [Compound 3] as the compound, how does the IC50 read?
**A.** 1600 nM

**Q.** How did the IC50 turn out when `COc1ccc(CNc2ccc3c(Nc4ccncc4C(=O)NCCCN4CCOCC4)nc(-c4cc(Cl)ccc4F)nc3n2)cc1` [Compound 18] was run?
**A.** 990 nM

**Q.** How did the IC50 turn out when `COC(=O)c1cnccc1Nc1nc(-c2cc(Cl)ccc2F)nc2nc(N(Cc3ccc(OC)cc3)Cc3ccc(OC)cc3)ccc12` [Compound 16] was run?
**A.** 745 nM

**Q.** Which IC50 does the source give for `COC(=O)c1cnccc1Nc1nc(-c2cc(Cl)ccc2F)nc2ncccc12` [Compound 11] here?
**A.** 1370 nM

**Q.** Which IC50 does the source give for `COc1ccc(CNc2ccc3c(Nc4ccncc4C(=O)NC4CC4)nc(-c4cc(Cl)ccc4F)nc3n2)cc1` [Compound 8] here?
**A.** 1400 nM

**Q.** How did the IC50 turn out when `CN(Cc1ccccc1)c1ccc2c(Nc3ccncc3C(=O)O)nc(-c3cc(Cl)ccc3F)nc2n1` [Compound 14] was run?
**A.** 225 nM

**Q.** How did the IC50 turn out when `CCOC(=O)c1cnccc1Nc1nc(-c2cc(Cl)ccc2F)nc2ncccc12` [Compound 13] was run?
**A.** 530 nM

**Q.** How did the IC50 turn out when `CNC(=O)c1cnccc1Nc1nc(-c2cc(Cl)ccc2F)nc2nc(NCCN(C)C)ccc12` [Compound 5] was run?
**A.** 6040 nM

**Q.** Which IC50 does the source give for `CNC(=O)c1cnccc1Nc1nc(-c2cc(Cl)ccc2F)nc2ncccc12` [Compound 2] here?
**A.** 70 nM
